The subject of this assay is M. mycetomatis genome strain MM55. In words: CLSI M38-A2 based in vitro susceptibility screening (XTT or resazurin), growth at fixed concentration. Format: cell-based, Madurella mycetomatis. The conditions noted are these: Madurella mycetomatis.
The mark [1] stands for this setting: 25 uM, replicate A, read-out: Percentage survival at 25um, 25 um A.
Setting [2] is: 25 uM, replicate B, read-out: Percentage survival at 25um, 25 uM B.
Setting [3] is: 25 uM, replicate C, read-out: Percentage survival at 25um, 25 uM C.
[4] abbreviates: 25 uM, mean of three, M. mycetomatis MM55, read-out: Percentage survival at 25um, 25 uM mean.
Where [5] appears, read: 25 uM, replicate A, M. mycetomatis MM55, read-out: Percentage survival at 25um, 25 um A.
[6] abbreviates: 25 uM, replicate B, M. mycetomatis MM55, read-out: Percentage survival at 25um, 25 uM B.
Setting [7] is: 25 uM, replicate C, M. mycetomatis MM55, read-out: Percentage survival at 25um, 25 uM C.
Where [8] appears, read: mean of three, M. mycetomatis MM55, read-out: Percentage survival at 100um, 100 uM mean.
Setting [9] is: replicate 1, M. mycetomatis MM55, read-out: Percentage survival at 100um, 100 uM A (first replicate column).
The mark [10] stands for this setting: replicate 2, M. mycetomatis MM55, read-out: Percentage survival at 100um, 100 uM A (second replicate column).
Where [11] appears, read: replicate 3, M. mycetomatis MM55, read-out: Percentage survival at 100um, 100 uM A (third replicate column).
[12] abbreviates: 25 uM, mean of three replicates, read-out: Percentage survival at 25um, 25 uM mean.
[13] abbreviates: mean of three replicates, read-out: Percentage survival at 100um, 100 uM mean.
[14] abbreviates: replicate 1, read-out: Percentage survival at 100um, 100 uM A (first replicate column).
Where [15] appears, read: replicate 2, read-out: Percentage survival at 100um, 100 uM A (second replicate column).
Where [16] appears, read: replicate 3, read-out: Percentage survival at 100um, 100 uM A (third replicate column).
[17] abbreviates: 25 uM, mean of replicates, MM55, read-out: Percentage survival at 25um, 25 uM mean.
Setting [18] is: 25 uM, replicate A, MM55, read-out: Percentage survival at 25um, 25 um A.
Where [19] appears, read: 25 uM, replicate B, MM55, read-out: Percentage survival at 25um, 25 uM B.
[20] abbreviates: 25 uM, replicate C, MM55, read-out: Percentage survival at 25um, 25 uM C.
The mark [21] stands for this setting: mean of replicates, MM55, read-out: Percentage survival at 100um, 100 uM mean.
Setting [22] is: replicate 1, MM55, read-out: Percentage survival at 100um, 100 uM A.
Setting [23] is: replicate 2, MM55, read-out: Percentage survival at 100um, 100 uM A.
[24] abbreviates: replicate 3, MM55, read-out: Percentage survival at 100um, 100 uM A.
[25] abbreviates: 25 uM, mean of replicates, read-out: Percentage survival at 25um, 25 uM mean.
The mark [26] stands for this setting: mean of replicates, read-out: Percentage survival at 100um, 100 uM mean.
Where [27] appears, read: replicate 1, read-out: Percentage survival at 100um, 100 uM A.
[28] abbreviates: replicate 2, read-out: Percentage survival at 100um, 100 uM A.
Setting [29] is: replicate 3, read-out: Percentage survival at 100um, 100 uM A.

Like-named read-outs stand apart in the source and are kept apart here.

As for `OB1OCc2c1ccc(Cl)c2F` [MMV1782226], the activity at 25 µM is, setting by setting: (25 uM, mean, read-out: Percentage survival at 25um, 25 uM mean) 54.9%; under setting [1], 54.6%; under setting [2], 46.9%; under setting [3], 63.1%. Besides, the activity at 100 µM reads like this: (mean, read-out: Percentage survival at 100um, 100 uM mean) 64.2%; (replicate (first column), read-out: Percentage survival at 100um, 100 uM A) 55.3%; (replicate (second column), read-out: Percentage survival at 100um, 100 uM A) 77.4%; (replicate (third column), read-out: Percentage survival at 100um, 100 uM A) 59.8%.
On to `CSC[C@H]1CN(Cc2c[nH]c3c(N)ncnc23)C[C@@H]1O` [MMV1578565], for which the activity at 25 µM reads like this: under setting [4], 80.1%; under setting [5], 86.7%; under setting [6], 77.5%; under setting [7], 76%. Moreover, the activity at 100 µM runs as follows: under setting [8], 87.9%; under setting [9], 88.9%; under setting [11], 91.9%. Also, the Percent fungal survival at 100 µM under setting [10] was found to be 83%.
On to `O=C(O)C(Cc1c[nH]c2ccccc12)N1C(=O)c2ccccc2C1=O` (centres unmarked) [MMV452821], for which the activity at 25 µM under setting [12] came out at 80.9%, the activity at 25 µM under setting [1] came to 99.3%, the activity at 25 µM under setting [2] is 91% and the activity at 25 µM under setting [3] was 52.5%. For the same molecule, the activity at 100 µM worked out at 96.8% under setting [13], 102% under setting [14] and 92.9% under setting [16]. The Percent fungal survival at 100 µM under setting [15] stood at 95.7%.
Turning to `CN(C)CCCNC(=O)c1ccc(-c2cc(O)c3ncccc3c2)cc1` [MMV1580488], the activity at 25 µM was 54.3% under setting [17], 72% under setting [18], 76.2% under setting [19] and 14.8% under setting [20]. In addition, the activity at 100 µM is 9.5% under setting [21], 10.5% under setting [22], 5.72% under setting [23] and 12.3% under setting [24].
`Cc1cc(CCOc2c(C)cc(-c3nnn(C)n3)cc2C)on1` [MMV1782349]: the activity at 25 µM by setting is: under setting [17], 75.6%; under setting [18], 84.4%; under setting [19], 90%; under setting [20], 52.4%. In addition, the activity at 100 µM reads like this: under setting [21], 52.1%; under setting [22], 44.9%; under setting [23], 65%; under setting [24], 46.2%.
Turning to `N[C@H]1CCC[C@H]1C(=O)O` [MMV1634361], the activity at 25 µM runs as follows: under setting [17], 92.1%; under setting [18], 98.3%; under setting [19], 98.6%; under setting [20], 79.4%. Besides, the activity at 100 µM was 96.6% under setting [21], 90.9% under setting [22], 120% under setting [23] and 79.2% under setting [24].
For the molecule `Nc1nc(-c2ccccc2)nc2[nH]nc(Nc3ccc(C(F)(F)F)cc3)c12` [MMV1633968], the activity at 25 µM stood at 111% under setting [17], 147% under setting [18], 105% under setting [19] and 80.3% under setting [20]. The activity at 100 µM came out at 86.9% under setting [21], 89.5% under setting [22], 94% under setting [23] and 77.2% under setting [24].
As to `CC(C)CCN1C(=O)C(C2=NS(=O)(=O)c3cc(NS(C)(=O)=O)ccc3N2)=C(O)[C@@H]2[C@H]3CC[C@H](C3)[C@@H]21` [MMV1782220], the activity at 25 µM runs as follows: under setting [17], 83.6%; under setting [18], 78.4%; under setting [19], 83.3%; under setting [20], 89.2%. Further, the activity at 100 µM was 113% under setting [21], 140% under setting [22], 71% under setting [23] and 127% under setting [24].
With `CCc1nc2ccccn2c1C(=O)NCc1ccccc1` [MMV1663457], the activity at 25 µM worked out at 64.2% under setting [4], 58% under setting [5], 69.7% under setting [6] and 64.8% under setting [7]. For the same molecule, the activity at 100 µM by setting is: under setting [8], 64.3%; under setting [9], 52.2%; under setting [11], 86.6%. In addition, the Percent fungal survival at 100 µM under setting [10] was 54%.
Regarding `O=C1NC(=S)N/C1=C\c1cc(Br)cc(Br)c1O` [MMV1578569], the activity at 25 µM is, setting by setting: under setting [25], 85.5%; under setting [1], 79.8%; under setting [2], 98.7%; under setting [3], 77.8%. In addition, the activity at 100 µM is, setting by setting: under setting [26], 102%; under setting [27], 103%; under setting [28], 104%; under setting [29], 97.5%.
Consider `Cc1ccc(C)c(OCCCCCCN2C[C@H](O)[C@@H](O)[C@H](O)[C@H]2CO)c1` [MMV1634401], for which the activity at 25 µM reads like this: under setting [12], 82.7%; under setting [1], 64.4%; under setting [2], 87.6%; under setting [3], 96.1%. The activity at 100 µM by setting is: (first replicate column, read-out: Percentage survival at 100um, 100 uM A) 83.4%; under setting [13], 82.2%; (second replicate column, read-out: Percentage survival at 100um, 100 uM A) 82.8%; (third replicate column, read-out: Percentage survival at 100um, 100 uM A) 80.5%.
With `O=C(Nc1ccc(-c2ccccc2)cc1)C1=C(O)C(Cc2ccccc2)OC1=O` (centres unmarked) [MMV1593531], the activity at 25 µM reads like this: under setting [25], 72.9%; under setting [1], 71.9%; under setting [2], 72%; under setting [3], 74.7%. Besides, the activity at 100 µM was determined as 74.5% under setting [26], 74.2% under setting [27], 70.8% under setting [28] and 78.4% under setting [29].
As for `CC(C)(C)c1cc(CCC(=O)N2CCC2)cc(C(C)(C)C)c1O` [MMV1229204], the activity at 25 µM is, setting by setting: under setting [4], 77.7%; under setting [5], 91.6%; under setting [6], 84.3%; under setting [7], 57%. Moreover, the activity at 100 µM runs as follows: under setting [8], 62.1%; under setting [9], 57.1%; under setting [11], 65.1%. In addition, under setting [10], the Percent fungal survival at 100 µM was 64%.
Take `NS(=O)(=O)c1ccc(NC(=O)NC(c2ccccc2)c2ccccc2)cc1` [MMV1579776]: the activity at 25 µM came to 95.1% under setting [5]; 101% (read-out: Percentage survival at 25um, 25 uM B); 86.7% (read-out: Percentage survival at 25um, 25 uM C); 94.2% (read-out: Percentage survival at 25um, 25 uM mean). Besides, the activity at 100 µM by setting is: under setting [8], 97%; under setting [9], 103%; under setting [10], 98.7%; under setting [11], 89%.
For the molecule `CC(C)Nc1ncnc2c1cnn2-c1ccc(Cl)cc1` [MMV108465], the activity at 25 µM under setting [25] is 63.1%, the activity at 25 µM under setting [1] is 53.4%, the activity at 25 µM under setting [2] was determined as 64.9% and the activity at 25 µM under setting [3] was determined as 71.1%. The activity at 100 µM by setting is: under setting [26], 22.2%; under setting [27], 0.471%; under setting [28], 1.77%; under setting [29], 64.4%.
`O=C1CCC(N2C(=O)c3ccccc3C2=O)C(=O)N1` (centres unmarked) [MMV002612]: the activity at 25 µM amounted to 90.8% under setting [12], 89.5% under setting [1], 90.5% under setting [2] and 92.5% under setting [3]. For the same molecule, the activity at 100 µM runs as follows: under setting [13], 85.3%; under setting [14], 88.1%; under setting [16], 82.9%. Moreover, the Percent fungal survival at 100 µM under setting [15] was determined as 84.8%.
